The source made the active and inactive calls. No cut-off for these calls is given here.
Experiments:
PC-12 = assay: Neuroprotective activity against H2O2-induced cell injury in rat PC-12 cells assessed as increase in cell survival at 10 uM preincubated with compound for 24 hrs followed by H2O2 addition and measured after 24 hrs by MTT assay; type: functional, cell-based; details: time 48.0 hrs
[1] = Inhibition of NO production in LPS-induced mouse BV-2 cells incubated for 24 hrs by Griess reagent based microplate reader analysis; type: functional, cell-based; details: BV-2, 24 h
BV-2 [2] = assay: Anti-neuroinflammatory activity in mouse BV-2 cells assessed as reduction in LPS-induced COX-2 expression at 10 uM by Western blot analysis; type: functional, cell-based
BV-2 [3] = assay: Anti-neuroinflammatory activity in mouse BV-2 cells assessed as reduction in LPS-induced iNOS expression at 10 uM by Western blot analysis; type: functional, cell-based
BV-2 [4] = assay: Anti-neuroinflammatory activity in LPS-stimulated mouse BV-2 cells assessed as reduction in ratio of phosphorylated NF-kappaB to NFkappaB at 10 uM by Western blot analysis; type: functional, cell-based
BV-2 [5] = assay: Anti-neuroinflammatory activity in mouse BV-2 cells assessed as reduction in LPS-induced TLR-4 expression at 10 uM by Western blot analysis; type: functional, cell-based
BV-2 [6] = assay: Cytotoxicity against mouse BV-2 cells assessed as reduction in cell viability by MTT-based colorimetric method; type: toxicity

C=C(CO[C@@H]1O[C@H](CO)[C@@H](O)[C@H](O)[C@H]1O)[C@@H]1CC[C@@]2(O)CCC[C@@H](C)[C@]2(C)C1
Activity (PC-12): Active

O=c1c(O)c(-c2ccc(O)c(O)c2)oc2cc(O)cc(O)c12 [QUERCETIN]
IC50 [1]: 6.5 µM

CC1=CC[C@H](O)[C@@]2(C)CC[C@H](C(C)(C)O[C@@H]3O[C@H](CO)[C@@H](O)[C@H](O)[C@H]3O)C[C@@H]12
Activity (PC-12): Active

C=C(C)[C@@H]1CC(=O)C2=CC(=O)C[C@@H](C)[C@]2(C)C1
Activity (BV-2 [2]): Active | Activity (BV-2 [3]): Active | Activity (BV-2 [4]): Active | IC50 [1]: 6.23 µM | Activity (BV-2 [5]): Active | Activity (BV-2 [6]): Non-Toxic

C=C1CCC(=O)[C@]2(C)CC[C@@H](C(C)C)[C@H](O)[C@@H]12
IC50 [1]: 4.92 µM | Activity (BV-2 [6]): Non-Toxic

C=C1CCC[C@H]2[C@@H]1[C@@H](C(C)=O)C[C@H]2C(C)C
Activity (PC-12): Active | IC50 [1]: 5.91 µM | Activity (BV-2 [6]): Non-Toxic

C=C(C)[C@@H]1CCC2=C[C@H](OC)C[C@@H](C)[C@]2(C)C1
Activity (PC-12): Active

C=C1CC[C@H]2O[C@]2(C)CC[C@@H]2[C@@H]1CC2(C)C
Activity (PC-12): Active

C=C(C)[C@@H]1CC[C@@]2(C)[C@H](O)CC[C@@](C)(O)[C@@H]2C1
Activity (PC-12): Active

C=C1CCC[C@H]2[C@@H]1[C@H](C(C)=O)C[C@H]2C(C)C
Activity (PC-12): Active | IC50 [1]: 6.81 µM | Activity (BV-2 [6]): Non-Toxic

C=C(C)[C@H]1CC[C@]2(C)O[C@H]2CC[C@@]2(C)O[C@@H]2C1
Activity (PC-12): Active
